Measurements from patent publication US20240400591A1 (Jacobio Pharmaceuticals Co., Ltd., priority 2021, published 2024).
Read-outs that look alike come from different tables or passages of the source.

Experiments:
[1] = biological target: T1, His-p53 Y220C (94-294) protein (Homo sapiens, UniProt P04637, Y220C); assay: In vitro DNA binding assay (HTRF); format: biochemical; details: % activation normalized to 2 μM Ref-1a high control
T1 construct: His-p53 Y220C (94-294) protein

[2] = tested on: NUGC3 (P53 Y220C); assay: Cell viability assay (CellTiter-Glo, 6 days), NUGC3; format: cell-based
Description: (§1) Cells were collected and counted. A desired number of cells was seeded into 96-well microplate and cultured in 37° C. cell incubator overnight. Compounds dissolved in cell culture medium were added into cell plate and cultured for 6 days. After balancing CellTiter-Glo reagent and cells at room temperature for 30 min, equal volume of CellTiter-Glo reagents was added to assay plate and shaken for 2 min for cell lysis. The cells were balanced at room temperature for 10 minutes and Luminescence signal was read using Envision. The percent of cell viability for compounds treated wells were normalized between High control and low control. Wells containing cell culture medium and same percentage DMSO sewved as Low control. Wells containing cells and same percentage DMSO sewved as High control. Cell viability (%)=(Luminescence readoutCompound treated−Luminescence readoutLow control)/(Luminescence readoutHigh control−Luminescence readoutLow control)*100%. Then the data were analyzed either by fitting a 4-parameter logistic model or by Excel to calculate IC50 values. And the IC50 was the concentration at 50% Cell viability on the curve.

[3] = tested on: NUGC4 (P53 WT); assay: Cell viability assay (CellTiter-Glo, 6 days), NUGC4; format: cell-based
Description: as §1

[4] = tested on: NUGC-3_P53_Luc single clonal cell line (p53 Y220C); assay: Reporter gene assay (p53 RE luciferase); format: cell-based
Description: NUGC-3_P53_Luc single clonal cell line was established using pGL4.38[luc2P/p53 RE/Hygro] Vector (E365A, promega). NUGC-3_P53-Luc single clonal cells were cultured in 37° C. cell incubator before use. NUGC-3-P53-Luc cells were collected and washed twice with PBS to remove phenol red and then resuspended in medium to a proper concentration. Tested compound dilutions were transferred into 384 well assay plates (PerkinElmer). A desired number of cells was seeded into the assay plate and cultured for 6 hours at 37° C. cell incubator. Britelite plus Luciferase Assay Reagent were added into each well and the luminescence value was recorded on Envision. The percent of activity value of compounds treated wells was normalized between high control and low control. Wells containing cells and Ref-1a (10 μM) sewved as high control, and wells containing cells and same percentage of DMSO sewved as low control. Activity value (%)=(Luminescence readoutCompound treated−Luminescence readoutLow control)/(Luminescence readoutHigh control−Luminescence readoutLow control)*100%. Then the data were analyzed either by fitting a 4-parameter logistic model or by Excel to calculate EC50 values and the EC50 was the concentration at 50% Activity on the curve.

[5] = Homo sapiens, NUGC-3, 144 h, cell viability, 6 days, CellTiter-Glo, read-out: NUGC3 (P53 Y220C) IC50
[6] = Homo sapiens, NUGC-4, 144 h, cell viability, 6 days, CellTiter-Glo, read-out: NUGC4 (P53 WT) IC50
[7] = Homo sapiens, NUGC-3, 6 h, luciferase reporter, 6 hours, normalized to Ref-1a (10 μM) high control, read-out: p53(Y220C)_NUGC-3 EC50
[8] = Homo sapiens, NUGC-3, luciferase reporter, 6 hours, normalized to Ref-1a (10 μM) high control, read-out: p53(Y220C)_NUGC-3 EC50
[9] = cell viability, 6 days, CellTiter-Glo, read-out: NUGC3 (P53 Y220C) IC50
[10] = cell viability, 6 days, CellTiter-Glo, read-out: NUGC4 (P53 WT) IC50
[11] = luciferase reporter, 6 hours, normalized to Ref-1a (10 μM) high control, read-out: p53(Y220C)_NUGC-3 EC50

EC50 [1] [nM]	SMILES	IC50 [2, 5] [µM]	IC50 [3, 6] [µM]	EC50 [4, 7] [µM]	EC50 [4, 8] [µM]	IC50 [2, 9] [µM]	IC50 [3, 10] [µM]	EC50 [4, 11] [µM]	IC50 ([2]; Homo sapiens, NUGC-3, 144 h, read-out: NUGC3 (P53 Y220C) IC50 (μM)) [µM]	IC50 ([3]; Homo sapiens, NUGC-4, 144 h, read-out: NUGC4 (P53 WT) IC50 (μM)) [µM]	EC50 ([4]; Homo sapiens, NUGC-3, 6 h, read-out: p53(Y220C)_NUGC-3 EC50 (μM)) [µM]
102	CN1CC[C@@H](Nc2cccc3c(CC(F)(F)F)c(C#CCNc4cc(F)c(P(C)(C)=O)cc4F)sc23)[C@@H](F)C1 (racemic) [Example 91, (2,5-difluoro-4-((3-(7-(((Z)-3-fluoro-1-methylpiperidin-4-yl)amino)-3-(2,2,2-trifluoroethyl)benzo[b]thiophen-2-yl)prop-2-yn-1-yl)amino)phenyl)dimethylphosphine oxide]	1.8	9.41		0.26						
40	COc1cc([S@](C)(=N)=O)ccc1NCC#Cc1sc2c(N[C@@H]3CCN(C)C[C@@H]3F)cccc2c1CC(F)(F)F [Example 227, (R)-(4-((3-(7-(((3S,4R)-3-fluoro-1-methylpiperidin-4-yl)amino)-3-(2,2,2-trifluoroethyl)benzo[b]thiophen-2-yl)prop-2-yn-1-yl)amino)-3-methoxyphenyl)(imino)(methyl)-16-sulfanone]					0.28	17.6	0.04			
106	COc1cc(P(C)(C)=O)ccc1NCC#Cc1sc2c(NC3CC(C)N(C)C(C)C3)cccc2c1CC(F)(F)F (stereo not drawn) [Example 143, (3-methoxy-4-((3-(3-(2,2,2-trifluoroethyl)-7-((1,2,6-trimethylpiperidin-4-yl)amino)benzo[b]thiophen-2-yl)prop-2-yn-1-yl)amino)phenyl)dimethylphosphine oxide]	1.94	6.94		0.45						
44	CN1CCC(Nc2cccc3c(CC(F)(F)F)c(C#CCNc4ccc(P(C)(C)=O)cc4OC(F)F)sc23)C(F)C1 (stereo not drawn) [Example 64, (3-(difluoromethoxy)-4-((3-(7-(((Z)-3-fluoro-1-methylpiperidin-4-yl)amino)-3-(2,2,2-trifluoroethyl)benzo[b]thiophen-2-yl)prop-2-yn-1-yl)amino)phenyl)dimethylphosphine oxide]					0.98	13.6	0.15			
71	COCC(O)CN1CC[C@@H](Nc2cccc3c(CC(F)(F)F)c(C#CCNc4ccc(P(C)(C)=O)cc4OC)sc23)[C@@H](F)C1 (relative stereo) [Example 97, 1-[(Z)-4-[[2-[3-(4-dimethylphosphoryl-2-methoxy-anilino)prop-1-ynyl]-3-(2,2,2-trifluoroethyl)benzothiophen-7-yl]amino]-3-fluoro-1-piperidyl]-3-methoxy-propan-2-ol]	0.96	5.72		0.15						
103	COCCOCCNC(=O)c1ccc(NCC#Cc2sc3c(N[C@@H]4CCN(C)C[C@@H]4F)cccc3c2CC(F)(F)F)c(OC)c1 (racemic) [Example 96, 4-((3-(7-(((Z)-3-fluoro-1-methylpiperidin-4-yl)amino)-3-(2,2,2-trifluoroethyl)benzo[b]thiophen-2-yl)prop-2-yn-1-yl)amino)-3-methoxy-N-(2-(2-methoxyethoxy)ethyl)benzamide]	1.68	9.93		0.13						
43	CN1CC[C@@H](Nc2cccc3c(CC(F)(F)F)c(C#CCNc4ccc(P(C)(C)=O)c5ccoc45)sc23)[C@@H](F)C1 [Example 198, (7-((3-(7-(((3S,4R)-3-fluoro-1-methylpiperidin-4-yl)amino)-3-(2,2,2-trifluoroethyl)benzo[b]thiophen-2-yl)prop-2-yn-1-yl)amino)benzofuran-4-yl)dimethylphosphine oxide]	0.26	5.1		0.2						
130	COCC(O)CN1CC[C@@H](Nc2cccc3c(CC(F)(F)F)c(C#CCNc4ccc(S(C)(=O)=O)cc4OC)sc23)[C@@H](F)C1 (mixture of isomers) [Example 6, 1-((Z)-3-fluoro-4-((2-(3-((2-methoxy-4-(methylsulfonyl)phenyl)amino)prop-1-yn-1-yl)-3-(2,2,2-trifluoroethyl)benzo[b]thiophen-7-yl)amino)piperidin-1-yl)-3-methoxypropan-2-ol]	1.19	6.83		0.36						

The remaining lines, values behind:

SMILES	EC50 [1] [nM]	IC50 [2, 5] [µM]	IC50 [3, 6] [µM]	EC50 [4, 7] [µM]	EC50 [4, 8] [µM]	IC50 [2, 9] [µM]	IC50 [3, 10] [µM]	EC50 [4, 11] [µM]	IC50 ([2]; Homo sapiens, NUGC-3, 144 h, read-out: NUGC3 (P53 Y220C) IC50 (μM)) [µM]	IC50 ([3]; Homo sapiens, NUGC-4, 144 h, read-out: NUGC4 (P53 WT) IC50 (μM)) [µM]	EC50 ([4]; Homo sapiens, NUGC-3, 6 h, read-out: p53(Y220C)_NUGC-3 EC50 (μM)) [µM]
COc1cc(P(C)(C)=O)ccc1NCC#Cc1sc2c(N[C@@H]3CCN(C4CCOCC4)C[C@@H]3F)cccc2c1CC(F)(F)F [Example 147, (4-((3-(7-(((3S,4R)-3-fluoro-1-(tetrahydro-2H-pyran-4-yl)piperidin-4-yl)amino)-3-(2,2,2-trifluoroethyl)benzo[b]thiophen-2-yl)prop-2-yn-1-yl)amino)-3-methoxyphenyl)dimethylphosphine oxide]	91	1.47	6.83	0.11							
CN1CC[C@@H](Nc2cccc3c(CC(F)(F)F)c(C#CCNc4ccc(P(C)(C)=O)cc4C(F)(F)F)sc23)[C@@H](F)C1 [Example 105, (4-((3-(7-(((3S,4R)-3-fluoro-1-methylpiperidin-4-yl)amino)-3-(2,2,2-trifluoroethyl)benzo[b]thiophen-2-yl)prop-2-yn-1-yl)amino)-3-(trifluoromethyl)phenyl)dimethylphosphine oxide]	35	1.83	10	0.2							
COc1cc(P(=O)(C2CC2)C2CC2)ccc1NCC#Cc1sc2c(N[C@@H]3CCN(C)C[C@@H]3F)cccc2c1CC(F)(F)F (racemic) [Example 99, dicyclopropyl(4-((3-(7-(((Z)-3-fluoro-1-methylpiperidin-4-yl)amino)-3-(2,2,2-trifluoroethyl)benzo[b]thiophen-2-yl)prop-2-yn-1-yl)amino)-3-methoxyphenyl)phosphine oxide]	87								1.44	6.58	0.15
CN1CC[C@@H](Nc2cccc3c(CC(F)(F)F)c(C#CCNc4ccc(P(C)(C)=O)cc4Cl)sc23)[C@@H](F)C1 (racemic) [Example 83, (3-chloro-4-((3-(7-(((Z)-3-fluoro-1-methylpiperidin-4-yl)amino)-3-(2,2,2-trifluoroethyl)benzo[b]thiophen-2-yl)prop-2-yn-1-yl)amino)phenyl)dimethylphosphine oxide]	40	1.31	7.96	0.21							
COc1cc(P(C)(C)=O)ccc1NCC#Cc1sc2c(N[C@@H]3CCN(C)C[C@@H]3C)cccc2c1CC(F)(F)F [Example 126, (4-((3-(7-(((3S,4R)-1,3-dimethylpiperidin-4-yl)amino)-3-(2,2,2-trifluoroethyl)benzo[b]thiophen-2-yl)prop-2-yn-1-yl)amino)-3-methoxyphenyl)dimethylphosphine oxide]	36	0.63	2.74	0.08							
CNC(=O)c1ccc(NCC#Cc2sc3c(N[C@H]4CCN(C)C[C@H]4F)cccc3c2CC(F)(F)F)c(OC)c1 [Example 112, 4-((3-(7-(((3R,4S)-3-fluoro-1-methylpiperidin-4-yl)amino)-3-(2,2,2-trifluoroethyl)benzo[b]thiophen-2-yl)prop-2-yn-1-yl)amino)-3-methoxy-N-methylbenzamide]	135	2.09	7.51	0.27							
COc1cc(P(C)(C)=O)ccc1NCC#Cc1sc2c(N[C@H]3CCN(C4CCOCC4)C[C@H]3F)cccc2c1CC(F)(F)F [Example 148, (4-((3-(7-(((3R,4S)-3-fluoro-1-(tetrahydro-2H-pyran-4-yl)piperidin-4-yl)amino)-3-(2,2,2-trifluoroethyl)benzo[b]thiophen-2-yl)prop-2-yn-1-yl)amino)-3-methoxyphenyl)dimethylphosphine oxide]	147	1.56	3.08	0.21							
